{"source": "patent US20090325906A1", "about": "“Methods and compositions for therapeutic treatment” (priority 2008, published 2009)", "key": {"rats": {"tested_on": "rats", "format": "in vivo", "description": "Animals: 8-9 weeks-old rats are used. General procedures for animal care and housing are in accordance with the National Research Council (NRC) Guide for the Care and Use of Laboratory Animals (1996) and the Animal Welfare Standards incorporated in 9 CFR Part 3, 1991.\nTreatment: Rats are treated i.v with FK506 and i.p. with Quercetin. Rats receive daily administrations containing either 0.5 mg/kg or 2 mg/kg of FK506 approximately one hour after the start of the light cycle. Rats are treated 30 minutes prior to FK506 treatment with quercetin at three different concentrations, 10 mg/kg, 25 mg/kg or 200 mg/kg. Subsets of 5 rats per group are used for blood sampling at each time point. Blood is collected for glucose measurement on days 0, 5, 9, and 14."}, "islet": {"tested_on": "islet", "conditions": "0.01 μmol/liter, after 7-d incubation; cited from earlier work"}, "mouse spleen cells [1]": {"tested_on": "mouse spleen cells", "test": "In vitro Con A assay on spleen cells", "format": "cell-based", "conditions": "for response of spleen cells to Con A (proliferation): high ([…]10^6 cells/well) and low (8×10^5 cells/well) cell concentration", "description": "(§1) Animals: 8-9 weeks-old Lewis and Brown Norway male rats are obtained from Charles River Laboratories. General procedures for animal care and housing is in accordance with the National Research Council (NRC) Guide for the Care and Use of Laboratory Animals (1996) and the Animal Welfare Standards incorporated in 9 CFR Part 3, 1991.\nSpleens are collected for use in in vitro Con A and LPS assays.\nSpleen cells are treated with Con A in the presence of vehicle, tacrolimus, quercetin or two different concentrations of tacrolimus (10^−8.2 and 10^−8.5 M) and increasing doses of quercetin at a high cell concentration (FIG. 13) or at a low cell concentration (FIG. 14). […] There is no significance difference between the effect of quercetin on tacrolimus induced cell suppression in vitro at the different concentrations used for quercetin. The same results are observed in cultures with low cell concentration (FIG. 14)."}, "[2]": {"tested_on": "heart transplant patients", "conditions": "target range 5-15 ng/mL, tacrolimus treatment arm, European study; cited from earlier work"}, "[3]": {"tested_on": "LEW responder splenocytes (lymphocyte proliferation)", "test": "Mixed lymphocyte reaction (MLR) with spleen cells of treated Lewis rats", "format": "cell-based, rat", "description": "Animals: 8-9 weeks-old Lewis and Brown Norway male rats are obtained from Charles River Laboratories. General procedures for animal care and housing are in accordance with the National Research Council (NRC) Guide for the Care and Use of Laboratory Animals (1996) and the Animal Welfare Standards incorporated in 9 CFR Part 3, 1991.\n(§2) Treatment: Lewis rats are treated with different single doses of LNS 0694 i.p. 30 minutes prior to single i.v. injections of tacrolimus at a concentration of 1 mg/kg as described in the table below.\n(§3) Spleens are collected at 4 hr after administration of FK506 for use in the in vitro mixed lymphocyte reaction (MLR) and Con A assays. In addition to treated Lewis rats, spleens are collected from 5 Brown Norway rats (not treated) which are used for the in vitro assay.\nMixed lymphocyte reactions: A single cell suspension of the spleen of each rat on test (LEW, responder) is prepared with a Dounce homogenizer and wash-medium. The cell suspension is depleted of red blood cells (treatment with NH4CL/Tris buffer) and washed twice with wash medium before resuspending in complete medium (CM; RPMI 1640 with 5% heat-inactivated (30 minutes at 56° C.) normal rat serum (from Lewis rats), 2 mM GlutaMAX, 100 U/ml penicillin and 100 μg/ml streptomycin mixture, and 55 μM 2-mercaptoethanol). A single cell suspension of splenocytes from five Brown Norway rats (BN, stimulators) is prepared with the same method. The BN splenocytes are pooled and irradiated with 1,500-2,000 rad (cesium source) before use.\nVarying numbers of responder cells are mixed with a constant number of stimulators (105) in 96-well, U-bottom cell culture plates to give a final responder:stimulator (R:S) ratio of 10:1, 5:1, 1:1 and 0.5:1 in 200 μl CM. Control wells for each cell suspension contained 10^5 responders alone in medium and 105 pooled, irradiated stimulators alone in medium (separate wells). For a positive proliferative response, each responder (10^5) is treated with 2.5 μg/ml Con A. […]\nThe results of the MLR assays [thymidine incorporation as counts per minute (CPM)] are expressed as mean±SD."}, "murine or human T cells": {"tested_on": "murine or human T cells", "conditions": "disrupting calcium signaling events that lead to lymphokine production; cited from earlier work"}, "[4]": {"tested_on": "renal transplant recipients", "conditions": "cited from earlier work"}, "[5]": {"tested_on": "liver transplant patients", "conditions": "two liver transplant trials; 514 patients tacrolimus and steroids, 515 patients CBIR; cited from earlier work"}, "mouse spleen cells [6]": {"tested_on": "mouse spleen cells", "test": "In vitro LPS assay on spleen cells", "format": "cell-based", "conditions": "high ([…]10^6 cells/well) and low (8×10^5 cells/well) cell concentration"}, "[7]": {"test": "Pharmacokinetics of FK 506 in male Lewis rats, whole blood drug levels", "format": "in vivo", "conditions": "FK 506 1 mg/kg i.v. with i.p. LNS 0694 at different doses", "description": "as §1\nTreatment: Lewis rats are treated as described in example 3. Subsets of 3 Lewis rats per group are used for blood sampling at each time point (Groups 2-5) as described in the table below.\nPlasma Blood Sample Collection: Whole blood is collected from the retro-orbital sinus under 60:40 CO2:O2 anesthesia using EDTA as the anticoagulant. Sample collection is performed at 9 time points: 5, 15, and 30 min and 1, 2, 4, 6, 8, & 24 hr after administration of FK 506. Three samples are collected from each rat per group (Groups 2-5). The first 2 samples are collected under anesthesia, after which the animal regains consciousness and is retained until the next collection interval. […]\nDrug levels are determined in collected whole blood samples using a bioanalytical method developed to detect parent drug levels.\nResults: The pharmacokinetics parameters of FK 506 are determined in male Lewis rats after 1 mg/kg i.v. administration alone or in combination with i.p, administration of different doses of LNS 0694 (See FIG. 15)."}, "[8]": {"tested_on": "LEW responder splenocytes activated with Con A", "test": "Con A stimulated proliferation of spleen cells of treated Lewis rats", "format": "cell-based, rat", "conditions": "LNS 0694 i.p. before FK 506 1 mg/kg i.v.", "description": "as §2, §3\nVarying numbers of responder cells are mixed with a constant number of stimulators (105) in 96-well, U-bottom cell culture plates to give a final responder:stimulator (R:S) ratio of 10:1, 5:1, 1:1 and 0.5:1 in 200 μl CM. Control wells for each cell suspension contained 10^5 responders alone in medium and 105 pooled, irradiated stimulators alone in medium (separate wells). For a positive proliferative response, each responder (10^5) is treated with 2.5 μg/ml Con A.\nCultures are incubated at 37±° 1 C. for 72±2 hours in 5±1% CO2 humidified air. Each well is pulsed with 1 μCi tritiated thymidine for 18±2 hours before automatic harvesting and analysis in a liquid scintillation counter."}, "[9]": {"test": "Sulfobutylether-7-β-cyclodextrin quercetin aqueous composition: concentration and storage stability", "format": "physicochemical", "conditions": "10 mg/ml in water with sulfobutylether-7-β-cyclodextrin", "description": "The flask is placed in an ice bath. When all of the Captisol is dissolved, 1.24 g of quercetin (Micron Technologies) (equivalent to about 1 g of anhydrous quercetin) is added with stirring. Into the flask, 12 ml of 1 N sodium hydroxide is added over about 5 to 10 minutes. […] Into the flask is then added 10.5 ml of hydrochloric acid over 5 to 10 minutes at a slow enough rate to avoid precipitation. During the addition of the sodium hydroxide and the hydrochloric acid, the temperature is maintained at less than 20° C. DI water is then added to give total volume of 100 ml. This procedure results in a sulfobutylether-7-β-cyclodextrin-quercetin aqueous composition at a concentration of 10 mg/ml (33 mM) in quercetin at a pH of about 7.8."}, "[10]": {"conditions": "quercetin or a quercetin derivative; cited from earlier work"}, "[11]": {"conditions": "cited from earlier work"}, "[12]": {"test": "Solubility of quercetin with sulfobutylether-7-β-cyclodextrin and meglumine", "format": "physicochemical", "conditions": "Captisol 30% w/v, Meglumine 44 mM, room temperature, about 10 minutes, excess solids removed", "description": "Sulfobutylether-7-β-cyclodextrin (Captisol™) is dissolved in water to form a solution at 30% w/v. To the Captisol solution is added Meglumine at a concentration of 44 mM and […] at a concentration of about 20 mg/ml. The solution is stirred at room temperature for about 10 minutes. The solution is separated from any excess solids (e.g. by filtration). The concentration of quercetin in the solution is about 9.2 mg/mL."}}, "note": "Like-named read-outs stand apart in the source and are kept apart here.", "data": [{"smiles": "C=CC[C@@H]1/C=C(\\C)C[C@H](C)C[C@H](OC)[C@H]2O[C@@](O)(C(=O)C(=O)N3CCCC[C@H]3C(=O)O[C@H](/C(C)=C/[C@@H]3CC[C@@H](O)[C@H](OC)C3)[C@H](C)[C@@H](O)CC1=O)[C@H](C)C[C@@H]2OC", "note": "(relative stereo) [tacrolimus, [3S-[3R[E(1S*,3S*,4S*)], 4S*,5R*,8S*,9E,12R*,14R*,15S*,16R*,18S*,19S*,26aR*]]-,6,8,11,12,13,14,15,16,17,18,19,24,25,26,26a-hexadecahydro-5,19-dihydroxy-3-[2-(4-hydroxy-3-methoxycyclohexyl)-1-methylethenyl]-14,16-dimethoxy-4,10,12,18-tetramethyl-8-(2-propenyl)-15,19-epoxy-3H-pyrido[2,1-c][1,4]oxaazacyclotricosine-1,7,20,21(4H,23H)-tetrone, monohydrate]", "values": [{"measurement": "percent change of glucose blood level", "setting": "rats; rat, in vivo, 0.5 mg/kg", "value": "greater increase"}, {"measurement": "glucose-stimulated insulin secretion, of the control value", "setting": "islet", "value": "32±5", "unit": "%"}, {"measurement": "response of spleen cells to Con A (proliferation)", "setting": "mouse spleen cells [1]", "value": "inhibits Con A-induced proliferation in a dose dependent manner"}, {"measurement": "patients with trough concentrations within the pre-defined target range", "setting": "[2]", "value": "74-86%"}, {"measurement": "lymphocyte proliferation in MLR (thymidine incorporation)", "setting": "[3]; FK 506 1 mg/kg i.v., spleens collected at 4 hr", "value": "inhibited"}, {"measurement": "inhibitory effect on MLR by R:S ratio", "setting": "[3]; FK 506 1 mg/kg i.v., R:S ratios 0.5:1, 1:1, 5:1", "value": "stronger inhibitory effect at lower R:S ratios"}, {"measurement": "potency relative to CsA", "setting": "murine or human T cells", "value": "50-100 fold"}, {"measurement": "incidence of posttransplant diabetes mellitus (PTDM)", "setting": "[4]; Japan", "value": 31.4, "unit": "%"}, {"measurement": "incidence of posttransplant diabetes mellitus (PTDM)", "setting": "[4]; western countries", "value": "10-30%"}, {"measurement": "proportion of patients reporting more than one adverse event", "setting": "[5]", "value": 99.8, "unit": "%"}, {"measurement": "response of spleen cells to LPS (proliferation)", "setting": "mouse spleen cells [6]", "value": "inhibits LPS-induced proliferation in a dose dependent manner"}]}, {"smiles": "O=c1c(O)c(-c2ccc(O)c(O)c2)oc2cc(O)cc(O)c12", "note": "[LNS 0694]", "values": [{"measurement": "FK 506 inhibitory effect on lymphocyte proliferation in MLR", "setting": "[3]; LNS 0694 50, 150, 300 mg/kg i.p. 30 minutes before FK 506 1 mg/kg i.v.", "value": "increases FK 506 inhibitory effect in a dose-dependent manner"}, {"measurement": "peripheral bioavailability of FK506", "setting": "[7]", "value": "increases the peripheral bioavailability of FK506 in a dose dependent manner"}, {"measurement": "FK 506 inhibitory effect on lymphocyte proliferation after Con A", "setting": "[8]", "value": "increases FK 506 inhibitory effect"}]}, {"smiles": "O=c1c(O)c(-c2ccc(O)c(O)c2)oc2cc(O)cc(O)c12", "note": "[quercetin]", "values": [{"measurement": "FK506 induced hyperglycemia", "setting": "rats; FK506 0.5 mg/kg i.v. daily, quercetin i.p. 30 minutes before, FIG. 2", "value": "decreases"}, {"measurement": "increase of glucose blood levels by FK506", "setting": "rats; FK506 0.5 mg/kg, quercetin 10, 25 and 200 mg/kg", "value": "reduced"}, {"measurement": "increase of blood glucose (percent change)", "setting": "rats; FK506 2 mg/kg + quercetin 10 mg/kg, day 9", "value": 60, "unit": "%"}, {"measurement": "increase of blood glucose (percent change)", "setting": "rats; FK506 2 mg/kg + quercetin 25 mg/kg, day 9", "value": 90, "unit": "%"}, {"measurement": "percent change of blood glucose", "setting": "rats; FK506 2 mg/kg + quercetin 200 mg/kg, day 9", "value": "reduced to the levels similar to rats treated with vehicle alone"}, {"measurement": "FK506 induced hyperglycemia", "setting": "rats; FK506 2 mg/kg i.v. daily, quercetin i.p. 30 minutes before, FIG. 1", "value": "decreases"}, {"measurement": "increase in glucose blood levels by FK506", "setting": "rats; FK506 2 mg/kg, day 5, quercetin 10, 25 and 200 mg/kg", "value": "reduced"}, {"measurement": "increase of glucose blood levels by FK506", "setting": "rats; FK506 2 mg/kg, day 9, quercetin 10, 25 and 200 mg/kg", "value": "reduced"}, {"measurement": "FK506 induced hyperglycemia", "setting": "rats; conclusion of Example 4, both FK506 doses", "value": "decreases"}, {"measurement": "tacrolimus induced cell suppression in vitro", "setting": "mouse spleen cells [1]; Con A, tacrolimus 10^−8.2 and 10^−8.5 M with increasing doses of quercetin, high cell concentration", "value": "does not impair"}, {"measurement": "effect of tacrolimus on cells", "setting": "mouse spleen cells [1]; conclusion of Example 6", "value": "does not alter"}, {"measurement": "response of spleen cells to Con A (proliferation)", "setting": "mouse spleen cells [1]", "value": "no significant effect"}, {"measurement": "stability of solution to precipitation", "setting": "[9]", "value": "stable for more than two weeks without precipitation"}, {"measurement": "serum half-life", "setting": "[10]", "value": "19 to 25", "unit": "h"}, {"measurement": "stability in solution", "setting": "[11]; above pH 5", "value": "degradation"}, {"measurement": "stability in solution", "setting": "[11]; below pH 3", "value": "stable"}, {"measurement": "response of spleen cells to LPS (proliferation)", "setting": "mouse spleen cells [6]", "value": "no significant effect"}, {"measurement": "concentration of quercetin in the solution", "setting": "[12]", "value": "about 9.2 mg/mL"}]}]}
